Tests used:
P.acnes = assay: Suspension test: decline of P. acnes in the formulations after 1 h, 6 h and 24 h (colony count); type: cell-based, Propionibacterium acnes; conditions: for antimikrobielle Wirksamkeit gegen P.acnes: result in words, suspension test, formulations as composed
Protocol: Die antimikrobielle Wirksamkeit der erfindungsgemäßen Kombinationen gegen P. acnes wurde zum Vergleich mit verschiedenen Formulierungen untersucht. Dazu wurde in einem Suspensionstest der Rückgang der P.acnes nach 1 h, 6h und 24h beobachtet. Dazu wurden wenige Einzelkolonien einer P.acnes - Kultur in 10mL anaerobem Medium im Impedanzgerät mit dem Programm PR37NT herangezogen. Nach der Wachstumsphase von ca. 18 Stunden wird zur Kontrolle der Keimzahl die OD gemessen, die etwa zwischen 0,3 - 0,5 liegen sollte. Für den Versuch wurden 100µL der gewachsene Kolonie und 100µL autoklaviertes Wasser zu 800mg der zu prüfenden Formulierung gegeben. Die Tests wurden manuell durchgeführt. Zwischen den Abnahmen werden die Proben unter anaeroben Bedingungen (Topf) gelagert. Die Proben wurden jeweils zum Zeitpunkt 1h, 6h und 24h genommen und auf den entsprechenden Agarplatten ausplattiert. Die Platten werden unter anaeroben Bedingungen (Topf) bei 37°C bebrütet. Nach 5 Tagen wurde die Keimzahl bestimmt. Die Abbildungen 1 und 2 zeigen die ermittelten Ergebnisse. Darin umfassen die Formulierung wie folgt • A: 0,5 Gew.% Licochalcone A • B: 0,5 Gew.% Licochalcone A und 0,3 Gew.% 1,2 Decandiol • C: 0,3 Gew.% 1,2 Decandiol • D: 0,5 Gew.% Licochalcone A, 0,3 Gew.% 1,2 Decandiol und 2 Gew.% Carnitin • E: 0,5 Gew.% Licochalcone A, 0,2 Gew.% 1,2 Decandiol und 2 Gew.% Carnitin • F: 0,5 Gew.% Licochalcone A, 0,1 Gew.% 1,2 Decandiol und 2 Gew.% Carnitin • G: 0,3 Gew.%-1,2 Decandiol und 2 Gew.% Carnitin • H: 0,2 Gew.% 1,2 Decandiol und 2 Gew.% Carnitin • I: 0,1 Gew.% 1,2 Decandiol und 2 Gew.% Carnitin

P. acnes [1] = conditions: 0,2 % 1,2-Decandiol alone or combined with 1 % Milchsäure, from EP 1598064 A1; cited from earlier work
P. acnes [2] = conditions: gegenüber P. acnes; cited from earlier work

SMILES	Zellzahl reduziert um Faktor (P.acnes; 0,3% Decandiol allein)	antimikrobielle Wirksamkeit gegen P.acnes (P.acnes)	antibakterielle Wirkung im Suspensionstest (P. acnes [1])	MHK-Werte (P. acnes [2]) [pmm]	Reduktionsfaktor (P.acnes; 0,5% Licochalcone A allein, nach 24h)
CCCCCCCCC(O)CO (stereo not shown) [1,2-Decandiol]	4158	nur eine schwache antimikrobielle Wirksamkeit	so gut wie keine antibakterielle Wirkung	–	–
CC[C@H]1OC(=O)[C@H](C)[C@@H](O[C@H]2C[C@@](C)(OC)[C@@H](O)[C@H](C)O2)[C@H](C)[C@@H](O[C@@H]2O[C@H](C)C[C@H](N(C)C)[C@H]2O)[C@](C)(O)C[C@@H](C)C(=O)[C@H](C)[C@@H](O)[C@]1(C)O [Erythromycin]	–	–	–	< 1	–
C=CC(C)(C)c1cc(/C=C/C(=O)c2ccc(O)cc2)c(OC)cc1O [Licochalcone A]	–	keine antimikrobielle Wirksamkeit	–	–	41
CN(C)[C@@H]1C(O)=C(C(N)=O)C(=O)[C@@]2(O)C(O)=C3C(=O)c4c(O)cccc4[C@@](C)(O)[C@H]3C[C@@H]12 [Tetracyclin]	–	–	–	< 1	–
